Where “and” joins values, the source holds several entries; their conditions need not be identical. Identical values can stand only once.
Assays:
[1] = system: T-cells; experiment: 3-days T-cell proliferation assay (3H-thymidine) after three rounds of in vitro stimulation of PBMC bulk cultures with RAS peptides; type: cell-based, human; settings: bulk cultures stimulated three rounds with TG02 + 13R, 10 μM peptide
Description: In this example, Buffy coats were collected from 4 normal human donors (Buffy 1, Buffy 2, Buffy 3, and Buffy 4) and were cultured in vitro. The in vitro PBMCs were stimulated with a single RAS peptide or a mixture of RAS peptides, and T-cell proliferation assays performed.
The procedure must be performed at room temperature until point 5. All handling of cells in the open is done in a vertical laminar flow hood. • 1. Rapidly transfer the vials, each vial with frozen PBMC from a buffy coat (Buffy 1, Buffy 2, Buffy 3, and Buffy 4), to a water bath at 37° C. • 2. Shake the vials manually at regular intervals (approx. 2-3 min.) and remove them from the water bath while some ice is still present. • 3. When all the ice is melted, transfer 1 ml of CellGro DC medium drop-wise to the cell suspension. • 4. Transfer the cell suspension to a 50 ml tube containing 20 ml of CellGro DC medium. • 5. Centrifuge cells at 500G for 5 min at room temperature. • 6. Resuspend the cells in 5 ml CellGro DC medium. • 7. Count the number of viable cells using a Burker chamber or KOVA Galsstic slides and adjust the cell concentration to 2×10^6 cells/ml in complete CellGro DC medium (see recipe). Total cell numbers: Buffy 1-45×10^6, Buffy 2-27.5×10^6, Buffy 3-40.5×10^6, and Buffy 4-40.5×10^6 cells.
b. Bulk cultures for increasing number of RAS peptide reactive T-cells • 1. […]

[2] = system: any RAS mutation; settings: cited from earlier work

Row | Substance | Counts per minute (CPM), APC + T-cell + 13 C ([1]; Donor #3, single replicates) | Mean counts per minute (CPM), APC + T-cell + 13 C ([1]; Mean Donor #3) [CPM] | Outcome of treatment in patients having any RAS mutation [2]
1 | KLVVVGAGCVGKSALTI (listed as Homo sapiens) [13C, RAS peptide of the peptide mixture having a G13C mutation] | 27813 CPM and 32522 CPM and 28869 CPM | 29735 | –
2 | paitumumab-FOLFOX4: panitumumab (printed paitumumab) in combination with FOLFOX4 chemotherapy | – | – | may even be harmed
